According to the supplement of paper PMC10307832:

What was measured:
Experiment in all cases: relative viability (nuclei count vs DMSO), 5 days (fraction); higher = more cells survive
[1] = compound: CO[C@H]1C[C@@H]2CC[C@@H](C)[C@@](O)(O2)C(=O)C(=O)N2CCCC[C@H]2C(=O)O[C@H]([C@H](C)C[C@@H]2CC[C@@H](OCCO)[C@H](OC)C2)CC(=O)[C@H](C)/C=C(\C)[C@@H](O)[C@@H](OC)C(=O)[C@H](C)C[C@H](C)/C=C/C=C/C=C/1C [Everolimus] + CC1(C)CCC(c2ccc(Cl)cc2)=C(CN2CCN(c3ccc(C(=O)NS(=O)(=O)c4ccc(N[C@H](CCN5CCOCC5)CSc5ccccc5)c(S(=O)(=O)C(F)(F)F)c4)cc3)CC2)C1 [Navitoclax] (partner 0.5 µM)
How it was run: (§1)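 A single step with final 0.05% Triton X-100, 1% formaldehyde and 1 ug/ml Hoechst fixed the cells and stained nuclei 5 days after treatment. Lung cancer cell lines in 1536-well plates had been treated by pin tool the day after seeding with one drug alone or a fixed anchor-drug dose plus five library-drug doses (not always all listed) in √10 steps, and nuclei were counted on 4× images. Relative viability is the ratio of nuclei in treated wells to nuclei in vehicle wells, taken as the median of duplicate plates.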

[2] = compound: CO[C@H]1C[C@@H]2CC[C@@H](C)[C@@](O)(O2)C(=O)C(=O)N2CCCC[C@H]2C(=O)O[C@H]([C@H](C)C[C@@H]2CC[C@@H](OCCO)[C@H](OC)C2)CC(=O)[C@H](C)/C=C(\C)[C@@H](O)[C@@H](OC)C(=O)[C@H](C)C[C@H](C)/C=C/C=C/C=C/1C [Everolimus] + C[C@]1(O)C[C@@H](c2nc(-c3ccc4ccc(-c5ccccc5)nc4c3)c3c(N)nccn32)C1 [Linsitinib] (partner 1 µM)
How it was run: as §1

[3] = compound: CO[C@H]1C[C@@H]2CC[C@@H](C)[C@@](O)(O2)C(=O)C(=O)N2CCCC[C@H]2C(=O)O[C@H]([C@H](C)C[C@@H]2CC[C@@H](OCCO)[C@H](OC)C2)CC(=O)[C@H](C)/C=C(\C)[C@@H](O)[C@@H](OC)C(=O)[C@H](C)C[C@H](C)/C=C/C=C/C=C/1C [Everolimus] + Cc1nc(NC(=O)N2CCC[C@H]2C(N)=O)sc1-c1ccnc(C(C)(C)C(F)(F)F)c1 [Alpelisib] (partner 2 µM)
How it was run: as §1

[4] = compound: CO[C@H]1C[C@@H]2CC[C@@H](C)[C@@](O)(O2)C(=O)C(=O)N2CCCC[C@H]2C(=O)O[C@H]([C@H](C)C[C@@H]2CC[C@@H](OCCO)[C@H](OC)C2)CC(=O)[C@H](C)/C=C(\C)[C@@H](O)[C@@H](OC)C(=O)[C@H](C)C[C@H](C)/C=C/C=C/C=C/1C [Everolimus] + O=C(CCCCCCC(=O)Nc1ccccc1)NO [Vorinostat] (partner 1 µM)
How it was run: as §1

Row | Cell Line | relative viability ([1]; first compound 0.01 µM) | relative viability ([1]; first compound 0.03162 µM) | relative viability ([1]; first compound 0.1 µM) | relative viability ([1]; first compound 0.3162 µM) | relative viability ([1]; first compound 1 µM) | relative viability ([2]; first compound 0.01 µM) | relative viability ([2]; first compound 0.03162 µM) | relative viability ([2]; first compound 0.1 µM) | relative viability ([2]; first compound 0.3162 µM) | relative viability ([2]; first compound 1 µM) | relative viability ([3]; first compound 0.01 µM) | relative viability ([3]; first compound 0.03162 µM) | relative viability ([3]; first compound 0.1 µM) | relative viability ([3]; first compound 0.3162 µM) | relative viability ([3]; first compound 1 µM) | relative viability ([4]; first compound 0.01 µM) | relative viability ([4]; first compound 0.03162 µM) | relative viability ([4]; first compound 0.1 µM) | relative viability ([4]; first compound 0.3162 µM) | relative viability ([4]; first compound 1 µM)
1 | NCI-H1793 | 0.285 | 0.165 | 0.247 | 0.258 | 0.184 | 0.299 | 0.188 | 0.333 | 0.311 | 0.246 | 0.314 | 0.225 | 0.298 | 0.23 | 0.267 | 0.344 | 0.288 | 0.322 | 0.356 | 0.251
2 | NCI-H1395 | 1.06 | 0.886 | 0.857 | 0.83 | 0.763 | 1 | 0.864 | 0.766 | 0.731 | 0.787 | 0.787 | 0.813 | 0.722 | 0.759 | 1.08 | 0.549 | 0.33 | 0.505 | 0.478 | 0.58
3 | HCC-827 | 1.02 | 1.07 | 0.99 | 1.04 | 0.987 | 1.01 | 0.977 | 0.979 | 1 | 0.838 | 0.925 | 0.736 | 0.656 | 0.682 | 0.637 | 0.643 | 0.578 | 0.709 | 0.827 | 0.794
4 | NCI-H2228 | 0.685 | 0.527 | 0.508 | 0.421 | 0.539 | 0.272 | 0.351 | 0.552 | 0.249 | 0.364 | 0.463 | 0.431 | 0.418 | 0.385 | 0.266 | 0.536 | 0.342 | 0.458 | 0.436 | 0.336
5 | EMC-BAC-2 | 0.9 | 0.806 | 0.619 | 0.736 | 0.61 | 0.587 | 0.542 | 0.532 | 0.517 | 0.501 | 0.499 | 0.46 | 0.388 | 0.461 | 0.481 | 0.278 | 0.267 | 0.299 |  | 0.292
6 | NCI-H23 | 0.556 | 0.424 | 0.44 | 0.544 | 0.557 | 0.288 | 0.3 | 0.244 | 0.251 | 0.271 | 0.355 | 0.326 | 0.285 | 0.281 | 0.309 | 0.373 | 0.31 | 0.432 | 0.369 | 0.35
7 | RERF-LC-KJ | 0.778 | 0.571 | 0.47 | 0.579 | 0.488 | 0.86 | 0.679 | 0.609 | 0.531 | 0.571 | 0.632 | 0.463 | 0.408 | 0.481 | 0.53 | 0.552 | 0.461 | 0.446 | 0.478 | 0.49
8 | LC-2-ad | 0.339 | 0.245 | 0.284 | 0.245 | 0.236 | 0.75 | 0.744 | 0.781 | 0.766 | 0.702 | 0.752 | 0.885 | 0.754 | 0.737 | 0.818 | 0.851 | 0.865 | 0.759 | 0.79 | 0.728
